Reference: patent US20110305707A1, “COMPOSITIONS AND METHODS FOR TREATING CANCER” (THE CLEVELAND CLINIC FOUNDATION, priority 2010, published 2011)

Columns and labels:
[1] = Plasma levels of apoA1 after subcutaneous apoA1 injection every other day; type: in vivo, mice; settings: apoA1 s.c. every other day, steady state, days 22-24
Description: In another part of this Example, apoA1 was injected subcutaneously into mice every other day and the plasma levels of apoA1 at steady state (shown in FIG. 9 for says 22-24) were monitored. […] This approximates the plasma levels of apoA1 in humans.

[2] = tested on: F10L_B16 Melanoma Tumor cells; assay: F10L_B16 melanoma in apoA1-KO mice given human ApoA1 or saline throughout the study (xenogen imaging, survival); type: in vivo; settings: vs normal saline
Description: In another part of this Example, human ApoA1 or normal saline (control) was given to apoA1-KO mice throughout duration of the study following the dosing schedule of 15 mg s.c. QOD. 10^5 F10L_B16 Melanoma Tumor cells were injected subcutaneously into the dorsum of the mice. Total tumor burden and metastases were quantified by xenogen imaging. […] Images of the mice 16 days post tumor injection are shown in FIG. 11, which show much greater tumor growth in the saline treated mice. Images of the mice 21 days post tumor injection are shown in FIG. 12, which show much greater tumor growth in the saline treated mice.

[3] = tested on: malignant melanoma; assay: Malignant melanoma animal model, apoA1 given as therapy after tumor growth is established; type: in vivo, mice
Description: In another part of this Example, the impact of giving apoA1 as a therapy is evaluated after the tumor growth is established and metastases are detectable. The same malignant melanoma animal model is employed. ApoA1 injections were started one week after tumor injection. […] In the insets for both 16A and 16B, note that apoA1 injections actually shrink peak tumor volume by ˜50% within 1-2 weeks of therapy. A similar ˜50% reduction in peak metastases burden is also noted in the apoA1 treated mice.
In similar experiments, ApoA2 was given in the same dosing strategy as apoA1 vs normal saline (S) control.

[4] = 15 mg s.c. QOD throughout study
[5] = ApoA1 injections started one week after tumor injection
[6] = ApoA2 given in the same dosing strategy, vs normal saline

Q: For apolipoprotein A-1 [ApoA1], which “plasma level of apoA1” value [1] is on record?
A: Its value is 75 to 175 mg/dL.

Q: And the “metastases formation (xenogen imaging)” value [2, 4]?
A: Its value is “blocks tumor growth and metastases formation”.

Q: And the “tumor growth (total tumor burden, xenogen imaging)” value [2, 4]?
A: The value was “blocks tumor growth”.

Q: What about the survival ([2]; 15 mg s.c. QOD) of the same substance?
A: Its survival is “much greater survival”.

Q: What about the metastases formation [3, 5] of the same substance?
A: Its metastases formation is “dramatically reduced”.

Q: What about the overall tumor growth [3, 5] of the same substance?
A: Its overall tumor growth is “dramatically reduced”.

Q: What about the “potency at reducing cancer growth compared with ApoA2” value [3, 6] of the same substance?
A: Its value is “markedly more potent”.

Q: And the “potency at reducing metastases formation compared with ApoA2” value [3, 6]?
A: Its value is “markedly more potent”.

Q: And the “reduction in peak metastases burden” value ([3]; injections started one week after tumor injection)?
A: The value was ~50%.

Q: And the “shrinkage of peak tumor volume” value ([3]; injections started one week after tumor injection, within 1-2 weeks of therapy)?
A: The value was ~50%.
